Data on one compound can be found in patent US9764002B2, “Dosage regimen for therapeutic method” (MADELEINE PHARMACEUTICALS PTY LTD, priority 2013, dated 2017).

As usually defined, the clearance is the volume of plasma or blood freed of the substance per unit of time. One may read the bioavailability as dose-corrected exposure relative to a reference, in per cent.

Structures are written as SMILES. Peptide text beside a SMILES is read from it.

The nature of one data set: clinical. Particulars: human, in vivo. As to the method:
A cohort of 10 subjects with stable CHF and undergoing standard of care treatment was treated with the formulation as follows: • i) 2 sentinel subjects were treated with a one stage 6 hour sc infusion of VSDL at 900 μg/h (Subjects 1 and 3) • ii) 5 subjects were treated with a one stage 12 hour sc infusion of VSDL at 900 μg/h (Subjects 102, 103, 104, 105 and 106); and • iii) 3 subjects were treated with a bimodal sc infusion of VSDL at 900 μg/h for 5 hours and then 550 μg/h for 7 hours (Subjects 111, 112 and 114). The dose regimen for this trial was designed using a pharmacokinetic model for VSDL based on prior data. The final model was used to simulate the median and 90% prediction intervals for 1000 patients given VSDL at 900 μg/h for 5 h then 550 μg/h for 7 h. This dose regimen targeted a population value of 10 ng/ml for the period 6-12 h after the start of the infusion. The predictions of the model were compared to observed VSDL concentration data from the three subjects referred to at iii) above. A model where infusion rate (ml/h) and delivered volume (ml) affected KA was an acceptable empirical description of the data. This model reproduced the observed increase in VSDL concentrations at the end of a subcutaneous infusion. The net effect was generally that KA increased with time during subcutaneous infusions. […] The final model had acceptable predictive performance based on the Visual Predictive Checks (allowing for low number of subjects).

For data set [1] the following is noted: human, in vivo.
For data set [2] the following is noted: human, in vivo. As to the method: In our clinical studies, lead patients were dosed at 900 μg/h for 6 hours based on the standard calculation shown earlier to reach a target steady state blood plasma concentration of 10 ng/ml and plasma levels of VSDL measured. Six hours is more than five half-lives for VSDL and, as such, should result in a steady state blood plasma concentration. Having verified the target steady state blood plasma concentration from lead patients, then Cohort 1 “Part 1” received 900 μg/h for 12 hours so as to achieve target steady state blood plasma concentration. However, the target steady state blood plasma concentration was not observed and as such the dosing regime required modification. After significant postulation and modelling of the hypothetical behaviour of VSDL, the multimodal dosage regime was developed. Cohort 1 “Part 2” was introduced using the bimodal dosing regime in an effort to reach a steady state blood plasma concentration of 10 ng/ml. Cohort 1 “Part 2” patients received VSDL at 900 μg/h (ie initial dosage rate) for 5 hours (ie initial period), followed by 550 μg/h for 7 hours (ie maintenance dosage rate).
The source holds these as a separate data set.

On to `CC(C)C[C@H](NC(=O)[C@H](C)NC(=O)[C@H](C)NC(=O)CNC(=O)[C@H](C)NC(=O)[C@H](CCC(=O)O)NC(=O)[C@H](CCC(=O)O)NC(=O)[C@H](CC(N)=O)NC(=O)[C@@H]1CCCN1C(=O)[C@H](CCC(=O)O)NC(=O)[C@H](CO)NC(=O)[C@H](CC(C)C)NC(=O)[C@@H](NC(=O)[C@H](CCC(N)=O)NC(=O)[C@@H]1CCCN1C(=O)[C@@H]1CCCN1C(=O)[C@@H](NC(=O)[C@@H](NC(=O)[C@@H](N)CCC(=O)O)C(C)C)C(C)C)C(C)C)C(=O)N[C@@H](CO)C(=O)N1CCC[C@H]1C(=O)N[C@@H](CC(C)C)C(=O)N1CCC[C@H]1C(=O)N[C@@H](CCC(=O)O)C(=O)N[C@H](C(=O)N1CCC[C@H]1C(=O)N1CCC[C@H]1C(=O)N[C@@H](Cc1c[nH]c2ccccc12)C(=O)N[C@H](C(=O)NCC(=O)N[C@@H](CCC(=O)O)C(=O)N[C@H](C(=O)N[C@@H](CO)C(=O)N1CCC[C@H]1C(=O)N[C@@H](C)C(=O)N[C@@H](CCC(N)=O)C(=O)N[C@@H](CCCNC(=N)N)C(=O)O)C(C)C)[C@@H](C)O)C(C)C` [VSDL] (H-EVVPPQVLSEPNEEAGAALSPLPEVPPWTGEVSPAQR-OH; N-terminus and C-terminus assumed), for which, in the data set “clinical”, the “KA Absorption rate constant, Pop value” is 0.265 h⁻¹; the “KARATE Effect of infusion rate of KA, Pop value” was −0.135; the “KAVOL Effect of infusion volume on KA, Pop value” was found to be 0.222; the “LGT1 Logit F value, Pop value” is −1.05. Further, in “clinical”, the “V Central volume, Pop value” is listed as 8.93 L; the “influence of creatinine clearance (CCL) and body mass index (BMI) on VSDL elimination kinetics” value is given as “minor”. For the same compound, the clearance in the data set “clinical” (CL Clearance, Pop value) is 263 mL/min. The clearance in the data set “clinical” (CL Maximum Elimination rate, Pop value) was 447 mL/min. Also, in the data set “clinical” (sc), the “V2 Multiplier of V for sc bolus, Pop value” was found to be 1.596 and the “V3 Multiplier of V for sc infusion, Pop value” was 3.142. In “clinical” (sc, F Bioavailability, Pop value), this compound displayed a bioavailability of 25.9%. Also, the “symptomatic hypotension from blood pressure drops” value in data set [1] was “none of these resulted in symptomatic hypotension”. Further, the “plasma concentration reached on continued increase beyond Css” value in data set [2] came to 30 ng/mL. Also, in data set [2] (sc), the “Css reached when the dose was doubled” value was 20 ng/mL and the “steady state blood plasma concentration of VSDL (Css) achieved” value worked out at 10 ng/mL.
